Test results as given in patent US9750789B2, “Use of matrix metalloproteinase inhibitors to treat tuberculosis” (priority 2011, dated 2017).
≈ marks a conversion by molar mass, not a printed value. Entries after “also recorded” stand apart in the source; their conditions may differ.

Assays:
bioluminescent Mtb [1] = test: microbe, parasite or virus in culture; assay type: cell-based, Mycobacterium tuberculosis
[2] = MacArthur et al 1978; cited from earlier work
bioluminescent Mtb [3] = test: MIC determination with bioluminescent Mtb; assay type: cell-based, Mycobacterium tuberculosis
[4] = test system: primary human bronchial epithelial cells; test: Total protein in bronchial epithelial cell culture supernatants (Bradford); conditions: Bradford analysis, data not shown
[5] = test system: primary human macrophages; test: Total protein accumulation in cell culture supernatants (Bradford); conditions: macrophage supernatants, doxycycline groups
MMP-1 [6] = conditions: Rand et al 2009; cited from earlier work
MMP-1 [7] = test: MMP-1 secretion by stimulated primary human monocytes; assay type: cell-based; conditions: Pam3Cys 5 μg/ml, 24 h

## C[C@H]1c2cccc(O)c2C(=O)C2=C(O)[C@]3(O)C(=O)C(C(N)=O)=C(O)[C@@H](N(C)C)[C@@H]3[C@@H](O)[C@@H]21 [Doxycycline, doxycycline]
Bioluminescent Mtb [1]
  MBC/MIC ratio: 16
Bioluminescent Mtb [1]; Mycobacterium tuberculosis, 72 h, luminescence monitored over 3 days, read-out: minimum bactericidal concentration (MBC)
  MBC: 40 µg/mL (≈ 90 µM)
[2]
  peak concentration in serum: 3.2 µg/mL
Bioluminescent Mtb [3]; 2.5 μg/ml doxycycline, at 2 days
  drop in relative light units: 1 log
Bioluminescent Mtb [3]; Mycobacterium tuberculosis, bioluminescent Mtb, confirmed by Resazurin, read-out: minimum inhibitory concentration (MIC)
  MIC: 2.5 µg/mL (≈ 5.63 µM)
[4]
  total protein in cell culture supernatants: no different between groups
[5]
  protein accumulation in the cell culture supernatants: the same in each group

## Nc1ccc(C(=O)O)c(O)c1 [P-amino-salicylic acid]
MMP-1 [6]
  MMP-1 secretion by Mtb-infected macrophages: inhibits

## Pam3Cys
MMP-1 [7]
  MMP-1 secretion: increased; also recorded: up-regulated MMP-1 equivalently to live Mtb
